According to ChEMBL document CHEMBL2203180, “Novel nitric oxide-releasing isochroman-4-one derivatives: Synthesis and evaluation of antihypertensive activity” (Bioorg Med Chem, 2012):
Calls of active or inactive are those of the source. The calls are words filed in the database; no cut-off is given here.

How the values were obtained:
[1] = Induction of nitric oxide release in 0.1 mM phosphate buffer solution at pH 7.4 assessed as nitrate/nitrite level after 120 mins by Griess assay; format: physicochemical; conditions: pH 7.4, 2 h
[2] = Induction of nitric oxide release in 0.1 mM phosphate buffer solution at pH 7.4 assessed as nitrate/nitrite level after 10 mins by Griess assay; format: physicochemical; conditions: pH 7.4, 10 min
[3] = Induction of nitric oxide release in 0.1 mM phosphate buffer solution at pH 7.4 assessed as nitrate/nitrite level after 150 mins by Griess assay; format: physicochemical; conditions: pH 7.4, 2.5 h
[4] = Induction of nitric oxide release in 0.1 mM phosphate buffer solution at pH 7.4 assessed as nitrate/nitrite level after 100 mins by Griess assay; format: physicochemical; conditions: pH 7.4, 100 min
[5] = Induction of nitric oxide release in 0.1 mM phosphate buffer solution at pH 7.4 assessed as nitrate/nitrite level after 60 mins by Griess assay; format: physicochemical; conditions: pH 7.4, 1 h
[6] = Induction of nitric oxide release in 0.1 mM phosphate buffer solution at pH 7.4 assessed as nitrate/nitrite level after 30 mins by Griess assay; format: physicochemical; conditions: pH 7.4, 0.5 h
[7] = Induction of nitric oxide release in 0.1 mM phosphate buffer solution at pH 7.4 assessed as nitrate/nitrite level after 80 mins by Griess assay; format: physicochemical; conditions: pH 7.4, 80 min
Rattus norvegicus [8] = test: Toxicity in spontaneously hypertensive rat assessed as change in heart rate at 80 mg/kg, po up to 24 hrs; format: organism-based; set-up: dose 80 mg/kg, route oral; conditions: in vivo
Rattus norvegicus [9] = test: Antihypertensive activity in spontaneously hypertensive rat assessed as reduction of diastolic arterial pressure at 40 mg/kg, po up to 24 hrs; format: functional, organism-based; set-up: dose 40 mg/kg; conditions: Artery
Rattus norvegicus [10] = test: Antihypertensive activity in spontaneously hypertensive rat assessed as reduction of blood pressure at 80 mg/kg, po up to 24 hrs; format: functional; set-up: scale not given: the % may be the effect or the level left
Rattus norvegicus [11] = test: Antihypertensive activity in spontaneously hypertensive rat assessed as reduction of diastolic arterial pressure at 80 mg/kg, po after 6 to 12 hrs; format: functional, Artery; set-up: scale not given: the % may be the effect or the level left
Rattus norvegicus [12] = test: Antihypertensive activity in spontaneously hypertensive rat assessed as reduction of mean artery pressure at 80 mg/kg, po up to 24 hrs; format: functional, organism-based; set-up: dose 80 mg/kg
Rattus norvegicus [13] = test: Antihypertensive activity in spontaneously hypertensive rat assessed as reduction of diastolic arterial pressure at 40 mg/kg, po after 6 to 12 hrs; format: functional, Artery; set-up: scale not given: the % may be the effect or the level left
[14] = Induction of nitric oxide release in 0.1 mM phosphate buffer solution at pH 7.4 assessed as nitrate/nitrite level after 10 to 150 mins by Griess assay; format: physicochemical

Activity [1] [µmol/L]	Activity [2] [µmol/L]	Activity [3] [µmol/L]	Activity [4] [µmol/L]	Activity [5] [µmol/L]	Activity [6] [µmol/L]	Activity [7] [µmol/L]	Activity [14]	SMILES	Activity (Rattus norvegicus [8])	Activity (Rattus norvegicus [9])	Activity (Rattus norvegicus [10]) [%]	Activity (Rattus norvegicus [11]) [%]	Activity (Rattus norvegicus [12])	Activity (Rattus norvegicus [13]) [%]
12.1	8.43	13.99	12.09	10.07	8.81	11.95		COc1cc2c(cc1OCC(=O)OCCO[N+](=O)[O-])C(=O)C(C)OC2 (centres undefined)						
17.61	10.37	20.62	14.61	11.91	10.41	14.7		COc1cc2c(cc1OCC(=O)OCCCO[N+](=O)[O-])COC(C)C2=O (centres undefined)	Non-toxic	Active	40	>30	Active	
								CC1OCc2c(ccc(O)c2O)C1=O (racemic)		Active				
18.95	17.45	28.58	18.81	18.12	17.87	18.3		COc1cc2c(cc1OCCCO[N+](=O)[O-])COC(C)C2=O (centres undefined)	Non-toxic	Active	40	>30	Active	
								C[C@H](CS)C(=O)N1CCC[C@H]1C(=O)O [CAPTOPRIL]		Active				>30
12.27	10.12	14.72	12.09	11.24	10.25	11.28		COc1cc2c(cc1OCCO[N+](=O)[O-])COC(C)C2=O (centres undefined)						
4.01	2.19	4.02	4.03	3.02	2.46	3.84		COc1ccc2c(c1OCCCCO[N+](=O)[O-])COC(C)C2=O (centres undefined)						
7.01	5.14	7.04	6.89	6.29	5.59	6.77		COc1cc2c(cc1OCCCO[N+](=O)[O-])C(=O)C(C)OC2 (centres undefined)						
8.1	5.56	10.06	7.56	6.04	5.84	6.52		COc1cc2c(cc1OCCO[N+](=O)[O-])C(=O)C(C)OC2 (centres undefined)						
8.68	4.81	12.99	8.31	7.72	5.17	7.85		COc1cc2c(cc1OCCCCO[N+](=O)[O-])COC(C)C2=O (centres undefined)						
4.01	0.84	4.86	3.95	2.27	1.19	3.84		COc1ccc2c(c1OCC(=O)OCCCO[N+](=O)[O-])COC(C)C2=O (centres undefined)						
6.59	4.05	8.72	6.55	6.04	5.08	6.27		COc1ccc2c(c1OCC(=O)OCCCCO[N+](=O)[O-])COC(C)C2=O (centres undefined)						
							Not Active	COc1cc2c(cc1O)C(=O)C(C)OC2 (centres undefined)						
14.61	1.51	16.26	10.5	4.53	1.78	7.29		COc1ccc2c(c1OCCO[N+](=O)[O-])COC(C)C2=O (centres undefined)	Non-toxic	Active	40	>30	Active	
							Not Active	COc1cc2c(cc1O)COC(C)C2=O (centres undefined)						
9.02	5.73	10.81	8.9	7.13	6.01	8.69		COc1cc2c(cc1OCC(=O)OCCCCO[N+](=O)[O-])C(=O)C(C)OC2 (centres undefined)						
11.69	7.42	14.92	11.67	8.72	7.45	11.7		COc1cc2c(cc1OCC(=O)OCCCCO[N+](=O)[O-])COC(C)C2=O (centres undefined)						
12.94	6.66	16.26	11.34	8.64	6.94	11.11		COc1cc2c(cc1OCC(=O)OCCO[N+](=O)[O-])COC(C)C2=O (centres undefined)						
							Not Active	COc1ccc2c(c1O)COC(C)C2=O (centres undefined)						
8.6	5.65	8.72	8.23	6.29	5.76	7.77		COc1cc2c(cc1OCC(=O)OCCCO[N+](=O)[O-])C(=O)C(C)OC2 (centres undefined)						
9.43	7.42	9.47	9.4	9.23	7.45	9.27		COc1ccc2c(c1OCCCO[N+](=O)[O-])COC(C)C2=O (centres undefined)						
13.27	10.62	16.68	13.35	13	10.84	13.12		COc1ccc2c(c1OCC(=O)OCCO[N+](=O)[O-])COC(C)C2=O (centres undefined)		Active				
6.09	4.81	7.54	6.05	4.87	4.83	5.93		COc1cc2c(cc1OCCCCO[N+](=O)[O-])C(=O)C(C)OC2 (centres undefined)						
								CC1OCc2cc(O)c(O)cc2C1=O (racemic)		Active				
